This note sets out measurements from patent US20230174523A1, “BENZENESULFONAMIDE DERIVATIVES AS TRAP1 MODULATORS AND USES THEREOF” (Amathus Therapeutics, Inc., priority 2020, published 2023).

In general, EC50 refers to the concentration giving half of the maximal effect. What is called Emax is the size of the effect at its maximum, as opposed to the concentration needed.

The assay concerns the target T1, TRAP1 enzyme (Homo sapiens, UniProt Q12931).
T1 sequence (Q12931 60-704): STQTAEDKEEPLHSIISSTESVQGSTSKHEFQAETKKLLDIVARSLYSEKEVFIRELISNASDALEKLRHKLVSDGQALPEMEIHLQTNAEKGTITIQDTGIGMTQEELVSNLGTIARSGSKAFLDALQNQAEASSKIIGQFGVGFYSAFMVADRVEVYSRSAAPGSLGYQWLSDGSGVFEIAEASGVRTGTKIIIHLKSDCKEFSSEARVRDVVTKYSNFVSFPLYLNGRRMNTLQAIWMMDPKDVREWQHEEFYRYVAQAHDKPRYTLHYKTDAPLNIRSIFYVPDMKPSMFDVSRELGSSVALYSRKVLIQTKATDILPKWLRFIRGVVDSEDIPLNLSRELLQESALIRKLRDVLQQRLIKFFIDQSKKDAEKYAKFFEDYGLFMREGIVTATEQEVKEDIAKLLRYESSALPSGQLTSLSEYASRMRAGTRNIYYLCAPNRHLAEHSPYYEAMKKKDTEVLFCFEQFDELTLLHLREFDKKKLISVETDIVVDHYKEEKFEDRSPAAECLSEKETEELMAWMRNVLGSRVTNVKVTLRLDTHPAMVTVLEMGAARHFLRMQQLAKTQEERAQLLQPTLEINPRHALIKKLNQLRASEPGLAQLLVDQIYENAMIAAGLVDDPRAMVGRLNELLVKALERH
The experiment in a line: ADP Glo assay of TRAP1 ATPase activity. To be noted: for EC50: TRAP1 ATPase activation, 150 nM Trap1, 20 μM ATP, geometric mean, read-out: ADP GLO DRC: GeoMean EC50; for Emax: read-out: ADP GLO DRC: Mean Emax. The assay is classed as biochemical. As to the method:
Potency of test compounds to modulate the ATPase activity of TRAP1 enzyme was evaluated using ADP Glo assay. The assay is based on quantification of the ADP generated from ATP in the ATPase reaction. The assay is performed in two steps: first, after the ATPase reaction, an equal volume of ADP-Glo™ Reagent is added to terminate the ATPase reaction and deplete the remaining ATP. Second, the Kinase Detection Reagent is added to simultaneously convert ADP to ATP and allow the newly synthesized ATP to be measured using a luciferase/luciferin reaction.
All the assays were carried out in a 384-well Proxiplate. The buffer used was 25 mM Pipes pH-7.5, 40 mM KCl, 0.05 mM MgCl2, 0.025% BSA, 0.316 mM EGTA, 0.003% Empigen, 0.01% Igepal. 150 nM Trap1 enzyme was incubated with various concentrations of the test compound (0.79 μM-100 μM) at 37° C. for 30 mins (except in blank wells). 20 μM ATP was added to each well to start the reaction. The plate was spun for 1 min at 1200 rpm and then incubated at 37° C. for 60 mins. 5 μl of ADP Glo reagent was added to all the wells and spun the plate for 1 min at 1200 rpm and kept it on a shaker at ambient temperature for 60 mins. 10 μl of kinase detection mix was added to all the wells and the plate was read for Luminescence at 495 nm. The amount of ADP released was estimated from ATP/ADP standard curve generated at the same experimental conditions. Emax (Maximal percent activation) and EC50 (concentration for half maximal activation) were estimated by fitting the dose response data to a sigmoidal curve fitting equation using Graphpad Prism software V. 8.

For `COc1ccc(NC(=O)c2ccc3nc(C)ccc3c2)cc1S(=O)(=O)Nc1c(C)cccc1C` [Compound 1118], the EC50 lay within 10 to 20 µM and the Emax lay within 200 to 300%.

For `COCCn1ccc(C(=O)Nc2ccc(OC)c(S(=O)(=O)Nc3c(C)cccc3C)c2)n1` [Compound 1066], the EC50 fell in the range of 20 to 100 µM and the Emax lay in the range of 160 to 199%.

Take `COc1ccc(NC(=O)c2cccc(-c3cncnc3)c2)cc1S(=O)(=O)Nc1c(C)cccc1C` [Compound 1248]: the EC50 is 20 to 100 µM and the Emax lay within 160 to 199%.

On to `COc1ccc(NC(=O)c2cnc(C3CC3)o2)cc1S(=O)(=O)Nc1c(C)cccc1C` [Compound 1175], for which the EC50 lay in the range of 20 to 100 µM and the Emax lay in the range of 160 to 199%.

`Cc1onc(-c2ccccc2Cl)c1C(=O)Nc1ccc(F)c(S(=O)(=O)Nc2ccc(Cl)cc2)c1` [Compound 728]: the EC50 lay in the range of 10 to 20 µM and the Emax was 123 to 159%.

For the compound `COc1ccc(NC(=O)c2cccnc2-c2cc(F)cc(F)c2)cc1S(=O)(=O)Nc1c(C)cccc1C` [Compound 1096], the EC50 was 10 to 20 µM and the Emax lay in the range of 123 to 159%.

Regarding `COc1ccc(NC(=O)c2cc3c(C)nn(C)c3s2)cc1S(=O)(=O)Nc1c(C)cccc1C` [Compound 1252], the EC50 was less than 10 µM and the Emax lay within 200 to 300%.

For the compound `COc1ccc(NC(=O)c2ccc3sc(C)nc3c2)cc1S(=O)(=O)Nc1c(C)cccc1C` [Compound 1269], the EC50 is 10 to 20 µM and the Emax was 160 to 199%.

On to `Cc1cc(Cl)nc(Cl)c1C(=O)Nc1ccc(F)c(S(=O)(=O)Nc2ccc(Cl)cc2)c1` [Compound 691], for which the EC50 is 20 to 100 µM and the Emax fell in the range of 123 to 159%.

Consider `COc1ccc(NC(=O)c2cccc3ccn(C)c23)cc1S(=O)(=O)Nc1c(C)cccc1C` [Compound 1060], for which the EC50 is less than 10 µM and the Emax fell in the range of 200 to 300%.

`COc1ccc(NC(=O)c2cc(F)cc(Br)c2C)cc1S(=O)(=O)Nc1c(C)cccc1C` [Compound 1065]: the EC50 is less than 10 µM and the Emax lay within 123 to 159%.

In the case of `COc1ccc(NC(=O)c2sc(-c3cccs3)nc2C)cc1S(=O)(=O)Nc1c(C)cccc1C` [Compound 1156], the EC50 was less than 10 µM and the Emax fell in the range of 123 to 159%.

Take `COc1ccc(NC(=O)c2ncc(-c3ccccc3)o2)cc1S(=O)(=O)Nc1cc2ccccc2nn1` [Compound 1825]: the EC50 is 20 to 100 µM and the Emax is 160 to 199%.

As for `COc1ccc(NC(=O)c2ncc(-c3ccccc3)o2)cc1S(=O)(=O)Nc1c(C#N)cccc1C(F)(F)F` [Compound 1343, N-(3-(N-(2-cyano-6-(trifluoromethyl)phenyl)sulfamoyl)-4-methoxyphenyl)-5-phenyloxazole-2-carboxamide], the EC50 was in the range of 20 to 100 µM and the Emax lay within 200 to 300%.

For the compound `COc1ccc(NC(=O)c2cccc3c2OC(C)(C)CC3)cc1S(=O)(=O)Nc1c(C)cccc1C` [Compound 1040], the EC50 was less than 10 µM and the Emax fell in the range of 200 to 300%.

On to `COc1ccc(NC(=O)c2cccc3ccoc23)cc1S(=O)(=O)Nc1c(C)cccc1C` [Compound 1094], for which the EC50 was less than 10 µM and the Emax fell in the range of 200 to 300%.

For `COc1ccc(NC(=O)c2cnc(-c3ccccc3C)[nH]2)cc1S(=O)(=O)Nc1ccc(Cl)cc1` [Compound 1971], the EC50 was less than 10 µM and the Emax fell in the range of 200 to 300%.

Consider `COc1ccc(NC(=O)c2ncccc2C)cc1S(=O)(=O)Nc1c(C)cccc1C` [Compound 1167], for which the EC50 was in the range of 10 to 20 µM and the Emax fell in the range of 123 to 159%.

`COc1ccc(NC(=O)c2csc(-c3cc(F)c(F)c(F)c3)n2)cc1S(=O)(=O)Nc1c(C)csc1C` [Compound 2406]: the EC50 is less than 10 µM and the Emax is 123 to 159%.

For `O=C(Nc1ccc(F)c(S(=O)(=O)Nc2ccc(Cl)cc2)c1)c1scnc1C1CC1` [Compound 724], the EC50 lay within 10 to 20 µM and the Emax lay in the range of 160 to 199%.

In the case of `COc1ccc(NC(=O)c2coc(-c3ccccc3)n2)cc1S(=O)(=O)Nc1c(C)cccc1C` [Compound 1301], the EC50 was less than 10 µM and the maximal effect (Emax) is 160 to 199%.

With `Cc1nc(C(=O)Nc2ccc(F)c(S(=O)(=O)Nc3ccc(Cl)cc3)c2)nn1-c1ccc(F)cc1` [Compound 835], the EC50 lay in the range of 10 to 20 µM and the Emax lay in the range of 123 to 159%.

`COc1ccc(NC(=O)c2ccc(C(C)(C)C)nc2)cc1S(=O)(=O)Nc1c(C)cccc1C` [Compound 1052]: the EC50 lay in the range of 20 to 100 µM and the Emax was 160 to 199%.

On to `COc1ccc(NC(=O)c2ccc(F)c(-c3c(F)cccc3F)n2)cc1S(=O)(=O)Nc1c(C)cccc1C` [Compound 1033], for which the EC50 is less than 10 µM and the Emax was in the range of 160 to 199%.

`Cc1oc(C)c(C(=O)Nc2ccc(F)c(S(=O)(=O)Nc3ccc(Cl)cc3)c2)c1C` [Compound 740]: the EC50 was in the range of 10 to 20 µM and the Emax lay within 123 to 159%.

For the compound `COc1ccc(NC(=O)c2ccc(-n3cccn3)cc2Cl)cc1S(=O)(=O)Nc1c(C)cccc1C` [Compound 1019], the EC50 was less than 10 µM and the Emax is 160 to 199%.

With `CCc1ccc(NC(=O)c2cnn(-c3ccc(Cl)cc3)c2C)cc1S(=O)(=O)Nc1ccc(Cl)cc1` [Compound 1335], the EC50 lay within 20 to 100 µM and the Emax is 123 to 159%.

As for `COc1ccc(NC(=O)c2ncc(-c3ccccc3)o2)cc1S(=O)(=O)Nc1c(C)ccc2ncccc12` [Compound 1605], the EC50 was less than 10 µM and the Emax fell in the range of 160 to 199%.

In the case of `COc1ccc(NC(=O)c2ccc3ncsc3c2)cc1S(=O)(=O)Nc1c(C)cccc1C` [Compound 1233], the EC50 fell in the range of 10 to 20 µM and the Emax fell in the range of 160 to 199%.

Consider `COc1ccc(NC(=O)c2ccc3c(c2)CCN3C)cc1S(=O)(=O)Nc1c(C)cccc1C` [Compound 1008], for which the EC50 fell in the range of 20 to 100 µM and the Emax lay in the range of 123 to 159%.

For the compound `COc1ccc(NC(=O)c2cnn3cccnc23)cc1S(=O)(=O)Nc1c(C)cccc1C` [Compound 1147], the EC50 is 20 to 100 µM and the Emax fell in the range of 200 to 300%.

As to `COc1ccc(NC(=O)c2cc(N3CCCC3)ccn2)cc1S(=O)(=O)Nc1c(C)cccc1C` [Compound 1077], the EC50 is less than 10 µM and the Emax fell in the range of 160 to 199%.

Take `COc1cc(C#N)cc(C(=O)Nc2ccc(OC)c(S(=O)(=O)Nc3c(C)cccc3C)c2)c1` [Compound 1090]: the half-maximal effective concentration (EC50) was less than 10 µM and the Emax fell in the range of 160 to 199%.

For the compound `COc1ccc(NC(=O)c2cnc(-c3c(OC)cccc3OC)[nH]2)cc1S(=O)(=O)Nc1ccc(Cl)cc1` [Compound 1969], the EC50 was 10 to 20 µM and the Emax was 200 to 300%.

For `COc1ccc(NC(=O)c2ncccc2-c2ccccc2)cc1S(=O)(=O)Nc1c(C)cccc1C` [Compound 1098], the EC50 was 10 to 20 µM and the Emax fell in the range of 200 to 300%.

Consider `COc1ccc(NC(=O)c2cncc(Br)c2C)cc1S(=O)(=O)Nc1c(C)cccc1C` [Compound 1107], for which the EC50 is 10 to 20 µM and the Emax lay within 200 to 300%.

With `COc1ccccc1-c1nc(C(=O)Nc2ccc(OC)c(S(=O)(=O)Nc3ccc(Br)cc3)c2)c[nH]1` [Compound 1181], the EC50 was less than 10 µM and the Emax fell in the range of 160 to 199%.

Regarding `COc1ccc(NC(=O)c2ccc(C)nc2OC)cc1S(=O)(=O)Nc1ccc(Cl)cc1` [Compound 1963], the EC50 is 20 to 100 µM and the Emax lay within 160 to 199%.

As for `COc1ccc(NC(=O)c2ccnn2-c2ccccc2)cc1S(=O)(=O)Nc1c(C)cccc1C` [Compound 1061], the EC50 is 10 to 20 µM and the Emax lay within 200 to 300%.

Turning to `COc1ccc(NC(=O)c2cnc(-c3ccccc3)[nH]2)cc1S(=O)(=O)Nc1c(C)cccc1C` [Compound 408], the EC50 was less than 10 µM and the Emax lay within 200 to 300%.

As for `COc1ccc(NC(=O)c2cn(C(C)C)cc2C(F)(F)F)cc1S(=O)(=O)Nc1c(C)cccc1C` [Compound 1103], the EC50 is less than 10 µM and the Emax is 160 to 199%.

In the case of `CCS(=O)(=O)c1ccc(OC)c(C(=O)Nc2ccc(OC)c(S(=O)(=O)Nc3c(C)cccc3C)c2)c1` [Compound 1254], the EC50 was 20 to 100 µM and the Emax was 160 to 199%.
